Data reported in patent publication US20250326718A1, “4-PHENYL-2-PYRROLIDINONES AND METHODS OF USING THEREOF” (North Carolina State University, priority 2022, published 2025).
Converted amounts (≈) assume the structure as drawn. Values belong to the compound of their own block, whether it stands above or below them.

Experiments:
Format in all cases: cell-based
MRSA (ATCC 33591) = test: Broth microdilution MIC, MRSA ATCC 33591; conditions: Staphylococcus aureus
Experimental: (§1) General information—Biological Assays. Methicillin-resistant and methicillin sensitive Staphylococcus aureus (MRSA and MSSA respectively) strains were obtained from the Laboratory of Professor Christian Melander (NCSU) (ATCC BAA 44 and 33591) and Dr. Jessica Gilbertie (ATCC 25923). Bacteria were kept in frozen stocks on glycerol at −80° C. until use. Bacteria was streaked onto tryptic-soy agar for colony isolation. Mueller-Hinton broth (MHB, 211443-BD), tryptic soy broth (TSB, Remel: R455052) and D-glucose (CAS: 492-62-6) were purchased from Fisher Scientific. Tryptic soy agar (TSA, cat. #22091) and Linezolid (cat. #P70014) were purchased from Sigma-Aldrich. Bacteria for biofilm inhibition were cultured overnight in TSB-G (tryptic soy broth with 0.5% glucose supplement) in 96 well plates. All assays were run in duplicate and repeated at least two separate times for MIC assays and at least three separate times for biofilm inhibition. All compounds were dissolved in molecular biology grade DMSO as 10 mM stock solutions. Optical densities were measured using a Thermo Scientific Genesys 20 spectrophotometer. Data for biofilm inhibition were collected using a BioTek ELx808 Microplate Reader. All graphs were generated and analyzed using GraphPad Prism 7.
Broth microdilution method for determination of minimum inhibitory concentrations. As prescribed by the Clinical and Laboratory Standards Institute (CLSI) M07-A8, Vol. 29 (2) MSSA (ATCC 25923) and MRSA (ATCC BAA 44 and 33591) was grown in MHB for 6-8 h; this culture was used to inoculate fresh MHB (5×10^5 CFU/mL). The resulting bacterial suspension was aliquoted (1 mL) into 1.5 mL Eppendorf tubes and compound was added from a 10 mM DMSO stock to achieve the desired initial starting concentration (typically 128 μg/mL). Linezolid (from a 10 mM DMSO stock) was used as a positive control. Inoculated media not treated with compound served as the negative control. The MIC was determined by microbroth dilution following the CLSI guidelines. The MIC was defined as the lowest concentration of antibiotic with no visible growth. The plate was sealed and incubated under stationary conditions at 37° C.
The antimicrobial activity of Compounds 1-15 was assessed initially against MSSA (ATCC 25923) and MRSA (ATCC 33591) strains. It was observed that almost all these compounds precipitated in aqueous solution at concentrations equal or higher than 8-16 μg/mL. In order to obtain preliminary results on the antimicrobial activity for these compounds, the standard conditions of the antimicrobial assays used where modified to favor the water solubility of these compounds.

[1] = tested on: MRSA (ATCC BAA 44) biofilm; test: Inhibition of MRSA biofilm formation (crystal violet); conditions: Staphylococcus aureus, 24 h, Table 1
Experimental: as §1
Determination of the inhibitory effect of test compounds on MRSA biofilm formation. Inhibition assays were performed using a procedure adapted from S. A. Rogers and C. Melander, Angew. Chem. Int. Ed., 2008, 47, 5229-5231, which is hereby incorporated herein by reference. Briefly, the inhibition assays were performed by subculturing an overnight culture of MRSA (ATCC BAA 44) to an OD600 of 0.01 in TSB-G (tryptic soy broth with a 0.5% glucose supplement). Stock solutions of predetermined concentrations of the test compound were then made using the inoculated TSB-G. These stock solutions were aliquoted (100 μL) into the wells of the 96-well microtiter plate. Sample plates were sealed then incubated for 24 h at 37° C. After incubation, the medium was discarded from the wells and the plates were washed 2× with PBS. Prior to staining, plates were left to dry at ambient temperature for 2-3 h. Plates were then stained with 0.1% solution of crystal violet (CV, 125 μL) and then incubated at ambient temperature for 30 min. Plates were washed with PBS again and the remaining stain was solubilized with 99% ethanol (200 μL). A sample of solubilized CV stain (110 μL) from each well was transferred to the corresponding wells of a polystyrene microtiter dish. Biofilm biomass was quantified by measuring the OD540 of each well and inhibition was calculated as a percentage of the control (no compound); a negative control lane wherein no biofilm was formed served as a background and was subtracted out. Percent inhibition was then plotted against concentration in Prism 7. Each of the four experiments were plotted separately and S15 analyzed by a normalized nonlinear regression. The graphs on the following pages were generated from an average of the total data set. Biofilm data represent four separate experiments, with each experiment performed in duplicate (average of 8 data points for each concentration tested, unless otherwise noted).

MSSA (ATCC 25923) = test: Broth microdilution MIC, MSSA ATCC 25923; conditions: Staphylococcus aureus; Tables 2-4; standardized conditions; read-out: MIC (S. aureus 25923)
S. aureus 29213 = test: Broth microdilution MIC, S. aureus 29213; conditions: Staphylococcus aureus, Tables 3-4, standardized conditions, read-out: MIC (S. aureus 29213)
[2] = Table 1, Compounds 1-15, preliminary data, modified non-standard conditions (pH 9), solubility-limited
[3] = Tables 2-4, standardized conditions

Structure (SMILES): CCC1C(c2ccc(C(F)(F)F)cc2)=C(O)C(=O)N1c1ccccc1 (stereo not drawn) [Compound 1, 5-Ethyl-3-hydroxy-1-phenyl-4-(4-(trifluoromethyl)phenyl)-1,5-dihydro-2H-pyrrol-2-one]
MIC (MRSA (ATCC 33591); [2]): 16 µg/mL (≈ 46.1 µM)
inhibition at 5 µM [1]: 5%
inhibition at 40 µM [1]: 85%

Structure (SMILES): CC1C(c2ccc(C(F)(F)F)cc2)=C(O)C(=O)N1c1ccccc1 (stereo not drawn) [Compound 2, 3-Hydroxy-5-methyl-1-phenyl-4-(4-(trifluoromethyl)phenyl)-1,5-dihydro-2H-pyrrol-2-one]
MIC (MRSA (ATCC 33591); [2]): 32 µg/mL (≈ 96 µM)
inhibition at 5 µM [1]: -26%
inhibition at 40 µM [1]: 72%

Structure (SMILES): CCC1C(c2ccc(C(F)(F)F)cc2)=C(O)C(=O)N1c1ccc(Br)cc1 (stereo not drawn) [Compound 3, 1-(4-Bromophenyl)-5-ethyl-3-hydroxy-4-(4-(trifluoromethyl)phenyl)-1,5-dihydro-2H-pyrrol-2-one]
MIC (MRSA (ATCC 33591); [2]): 32 µg/mL (≈ 75.1 µM)
inhibition at 5 µM [1]: 34%
inhibition at 40 µM [1]: 72%

Structure (SMILES): CCC1C(c2ccc(C(F)(F)F)cc2)=C(O)C(=O)N1c1ccc(F)cc1 (stereo not drawn) [Compound 4, 5-Ethyl-1-(4-fluorophenyl)-3-hydroxy-4-(4-(trifluoromethyl)phenyl)-1,5-dihydro-2H-pyrrol-2-one]
MIC (MRSA (ATCC 33591); [2]): 16 µg/mL (≈ 43.8 µM)
inhibition at 5 µM [1]: 22%
inhibition at 40 µM [1]: 81%

Structure (SMILES): CCC1C(c2ccc(C(F)(F)F)cc2)=C(O)C(=O)N1CCN(CCN1C(=O)C(O)=C(c2ccc(C(F)(F)F)cc2)C1CC)CCN1C(=O)C(O)=C(c2ccc(C(F)(F)F)cc2)C1CC (stereo not drawn) [Compound 40, 1,1′,1″-(nitrilotris(ethane-2,1-diyl))tris(5-ethyl-3-hydroxy-4-(4-(trifluoromethyl)phenyl)-1,5-dihydro-2H-pyrrol-2-one)]
MIC (MRSA (ATCC 33591); [3]): > 128 µg/mL
MIC (MSSA (ATCC 25923)): > 128 µg/mL
MIC (S. aureus 29213): > 128 µg/mL

Structure (SMILES): CC1C(c2ccc(C(F)(F)F)cc2)=C(O)C(=O)N1c1ccc(Br)cc1 (stereo not drawn) [Compound 41, 1-(4-Bromophenyl)-3-hydroxy-5-methyl-4-(4-(trifluoromethyl)phenyl)-1,5-dihydro-2H-pyrrol-2-one]
MIC (MRSA (ATCC 33591); [3]): 32 µg/mL (≈ 77.6 µM)
MIC (MSSA (ATCC 25923)): > 128 µg/mL
MIC (S. aureus 29213): > 128 µg/mL

Other lines, results leading:

MIC (MRSA (ATCC 33591); [3]): > 128 µg/mL
MIC (MSSA (ATCC 25923)): > 128 µg/mL
MIC (S. aureus 29213): > 128 µg/mL
Structure (SMILES): CCC1C(c2ccc(C(F)(F)F)cc2)=C(O)C(=O)N1c1ccc(Br)cc1 (stereo not drawn) [Compound 42, 1-(4-Bromophenyl)-5-ethyl-3-hydroxy-4-(4-(trifluoromethyl)phenyl)-1,5-dihydro-2H-pyrrol-2-one]

MIC (MRSA (ATCC 33591); [3]): 64 µg/mL (≈ 146 µM)
MIC (MSSA (ATCC 25923)): > 128 µg/mL
MIC (S. aureus 29213): > 128 µg/mL
Structure (SMILES): O=C1C(O)=C(c2ccc(C(F)(F)F)cc2)C(C2CC2)N1c1ccc(Br)cc1 (stereo not drawn) [Compound 43, 1-(4-Bromophenyl)-5-cyclopropyl-3-hydroxy-4-(4-(trifluoromethyl)phenyl)-1,5-dihydro-2H-pyrrol-2-one]

MIC (MRSA (ATCC 33591); [3]): 64 µg/mL (≈ 143 µM)
MIC (MSSA (ATCC 25923)): 64 µg/mL (≈ 143 µM)
MIC (S. aureus 29213): 128 µg/mL (≈ 287 µM)
Structure (SMILES): O=C1C(O)=C(c2ccc(C(F)(F)F)cc2)C(CCl)N1c1ccc(Br)cc1 (stereo not drawn) [Compound 44, 1-(4-Bromophenyl)-5-(chloromethyl)-3-hydroxy-4-(4-(trifluoromethyl)phenyl)-1,5-dihydro-2H-pyrrol-2-one]

MIC (MRSA (ATCC 33591); [3]): > 128 µg/mL
MIC (MSSA (ATCC 25923)): > 128 µg/mL
MIC (S. aureus 29213): 128 µg/mL (≈ 266 µM)
Structure (SMILES): O=C1C(O)=C(c2ccc(C(F)(F)F)cc2)C(c2cccs2)N1c1ccc(Br)cc1 (stereo not drawn) [Compound 45, 1-(4-Bromophenyl)-3-hydroxy-5-(thiophen-2-yl)-4-(4-(trifluoromethyl)phenyl)-1,5-dihydro-2H-pyrrol-2-one]
